Reference: US10856562B2, “Flavor composition and edible compositions containing same” (MARS, INCORPORATED, priority 2013, dated 2020)
“Also recorded” adds a separate entry of the source. Square brackets hold non-standard residues; d marks the D form. Ends that are not written are not given here. pGlu = O=C1CC[C@@H](C(=O)O)N1

System: panelists
Assay: Increased salt perception protocol: salt 5 reference (0.35% salt solution) re-tasted after expectoration of test sample
Assay type: in vivo, human
Conditions: for Astringent, after-expectoration perception / Bitter, after-expectoration perception / Flinty/Mineral, after-expectoration perception / Metallic, after-expectoration perception / Numbing, after-expectoration perception / Salt, after-expectoration perception (mean salt perception after expectoration) / Sour, after-expectoration perception / Sweet, after-expectoration perception: salt 5 reference re-tasted, mean score
Source text: 1. Each panelist tasted a salt reference (0.35% salt solution) with a reference salt intensity of 5.0 which provided a baseline for each panelist for salt intensity. 2. Each panelist tasted a test sample (0.1 ppb, 0.5 ppb, 1.0 ppb, 10.0 ppb or 40.0 ppb all in 0.2% NaCl solution). Only one sample was tasted per session. 3. Each panelist re-tasted the salt reference (5.0 intensity) and rated it for salt intensity as well as any other basic taste, chemical feeling factor, or aromatic perceived. Thus, any increased salt perception as a result of the test sample would be determined, as well as any other perceptions present. Attribute Perception Protocol • The panelists evaluated each sample using the following procedure • Descriptive Profiles (flavor and chemical feeling factors) of 5 levels of salt enhancing solutions • Individual data was collected for the flavor and chemical feeling factors of the product in-mouth • Increased Salt Perception Protocol • Each panelist tasted salt 5 reference (0.35% salt solution)—to ground themselves on salt intensity of 5.0. • Each panelist tasted the test sample (0.1 ppb, 0.5 ppb, 1.0 ppb, 10.0 ppb or 40.0/50.0 ppb all in 0.2% NaCl solution: only one per session) • Each panelist then re-tasted the salt 5 reference and rated it for salt intensity as well as any other basic taste, chemical feeling factor, or aromatic perceived. This captured any increased salt perception indicated by the test sample as well as any other perceptions present. • Return to Baseline Protocol • After evaluating the sample for salt & other perceptions, panelists re-tasted the salt 5 reference at 1 minute intervals until their perception of the salt 5 saltiness intensity had returned to 5.0. Each panelist recorded their salt intensity at each interval and took qualitative notes on other perceptions seen in aftertaste. Sample Preparation

## [pGlu]-Val [SE-14]
0.1 ppb in 0.2% NaCl
  Astringent, after-expectoration perception: 0.0
  Bitter, after-expectoration perception: 0.0
  Flinty/Mineral, after-expectoration perception: 1.1
  Metallic, after-expectoration perception: 0.3
  Numbing, after-expectoration perception: 0.0
  Salt, after-expectoration perception (mean salt perception after expectoration): 6.7
  Sour, after-expectoration perception: 0.0
  Sweet, after-expectoration perception: 0.0
0.1 to 40.0/50.0 ppb
  Level of the aromatics, basic tastes and chemical feeling factors after expectoration with increasing concentration: do not increase
0.1 to 40.0/50.0 ppb in 0.2% NaCl
  Salt perception after expectoration as the concentration increases: increases slightly; also recorded: slight increase
0.5 ppb in 0.2% NaCl
  Astringent, after-expectoration perception: 0.1
  Bitter, after-expectoration perception: 0.0
  Flinty/Mineral, after-expectoration perception: 1.0
  Metallic, after-expectoration perception: 0.1
  Numbing, after-expectoration perception: 0.0
  Salt, after-expectoration perception (mean salt perception after expectoration): 7.0
  Sour, after-expectoration perception: 0.0
  Sweet, after-expectoration perception: 0.0
1.0 ppb in 0.2% NaCl
  Astringent, after-expectoration perception: 0.1
  Bitter, after-expectoration perception: 0.0
  Flinty/Mineral, after-expectoration perception: 0.5
  Metallic, after-expectoration perception: 0.1
  Numbing, after-expectoration perception: 0.0
  Salt, after-expectoration perception (mean salt perception after expectoration): 7.0
  Sour, after-expectoration perception: 0.0
  Sweet, after-expectoration perception: 0.0
10.0 ppb in 0.2% NaCl
  Astringent, after-expectoration perception: 0.0
  Bitter, after-expectoration perception: 0.0
  Flinty/Mineral, after-expectoration perception: 1.0
  Metallic, after-expectoration perception: 0.2
  Numbing, after-expectoration perception: 0.0
  Salt, after-expectoration perception (mean salt perception after expectoration): 7.3
  Sour, after-expectoration perception: 0.0
  Sweet, after-expectoration perception: 0.0
50.0 ppb in 0.2% NaCl
  Astringent, after-expectoration perception: 0.1
  Bitter, after-expectoration perception: 0.0
  Flinty/Mineral, after-expectoration perception: 0.6
  Metallic, after-expectoration perception: 0.1
  Numbing, after-expectoration perception: 0.0
  Salt, after-expectoration perception (mean salt perception after expectoration): 8.0
  Sour, after-expectoration perception: 0.0
  Sweet, after-expectoration perception: 0.0
All levels
  Umami like swelling of lips and tongue, after expectoration: Panelists also experience Umami like swelling of lips and tongue
All samples, 0.1 to 40.0/50.0 ppb
  Salt perception from in-mouth to after expectoration: increases after expectoration (from in-mouth) in all samples; also recorded: noticeable increase
